Key:
[1] = molecular target: human PXR (Homo sapiens, UniProt O75469); details: cited from earlier work
[2] = molecular target: T1, LXRα (Homo sapiens, UniProt Q13133); assay: Transient transfection assay Gal-hLXRα + RXR LBD, UASGx4 TK Luc reporter, CV-1 cells; type: cell-based
T1 construct: expressed in transfected cells; host or cells: CV-1 cells
T1 sequence (Q13133 209-447 limits assumed): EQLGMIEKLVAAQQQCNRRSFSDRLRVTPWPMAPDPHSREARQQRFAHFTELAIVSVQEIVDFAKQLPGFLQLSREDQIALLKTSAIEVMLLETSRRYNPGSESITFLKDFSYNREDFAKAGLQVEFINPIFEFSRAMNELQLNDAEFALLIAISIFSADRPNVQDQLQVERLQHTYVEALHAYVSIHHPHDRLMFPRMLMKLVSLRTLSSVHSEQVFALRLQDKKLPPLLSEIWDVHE
T1 sequence (P19793 227-458 partner limits assumed): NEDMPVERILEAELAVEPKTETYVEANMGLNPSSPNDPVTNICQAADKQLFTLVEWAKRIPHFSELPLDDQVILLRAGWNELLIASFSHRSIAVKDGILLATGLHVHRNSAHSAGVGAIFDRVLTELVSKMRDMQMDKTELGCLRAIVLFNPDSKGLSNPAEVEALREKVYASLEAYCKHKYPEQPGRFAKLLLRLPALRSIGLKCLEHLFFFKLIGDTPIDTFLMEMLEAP
Experimental: (§1) Synthetic compounds were screened in an effort to find more specific LXR inhibitors. CV-1 cells were maintained and transfected using known methods. Forman et al., Cell 81: 687-693, 1995. CV-1 cells were transiently transfected with Gal-hLXRα, the RXR LBD, the UASGx4 TK Luc reporter and CMX-β-gal as an internal control, either in standard or in lipid-stripped serum. After transfection, cells were treated for approximately 40 hours with phenol red-free DMEM-FBS containing the indicated compounds at the following concentrations: T0901317 (100 nM), Clotrimazole (10 μM), S883417(10 μM) and S100250 (10 μM), unless otherwise specified. After exposure to ligand, the cells were harvested and assayed for luciferase and β-galactosidase activity. The luciferase activity was normalized to the internal β-galactosidase control (reporter activity).
The ability of these compounds to repress LXRα and LXRβ was compared by transfecting CV-1 cells with either the RXR LBD alone or the RXR LBD together with either Gal-LXRα or Gal-LXRβ.
Transfections were performed as described above, with increasing concentrations of Clotrimazole.

[3] = test system: SREBP-1c expression; assay: Real-time PCR of SREBP-1c expression in HepG2 cells; type: cell-based, human; details: Clotrimazole 10 μM plus T0901317 100 nM, 24 hours
Experimental: Real time PCR was then performed on cDNA derived from RNA isolated form the treated HepG2 cells as follows. Real time quantitative PCR assays were performed using an Applied Biosystems 7700 sequence detector (Applied Biosystems). Each reaction mixture contained 50 ng cDNA, 1.25 pmol each forward and reverse primer, and […] 2× SYBR Green PCR master mix (Applied Biosystems) in a final volume of 25 μl. The PCR conditions were 50° C. for 2 min, 95° C. for 10 min, and 40 cycles of 95° C. for 15 sec and 60° C. for 1 min. Samples were run in duplicate for each primer pair. Expression of glyceraldehyde-3-phosphate dehydrogenase (GAPDH) was analyzed in parallel as an internal control. Each sample was normalized to GAPDH and is represented in the Figure showing the results as arbitrary units with the expression levels in untreated cells assigned a value of one. The primer sequences are as follows: human SREBP-1c forward [NT] ID NO:1); human SREBP-1c reverse [NT] ID NO:2); human GAPDH forward [NT] ID NO:3) and human GAPDH reverse [NT] ID NO:4).

[4] = test system: CV-1 cells; assay: Cytotoxicity in transfected CV-1 cells; details: T0901317 100 nM; Clotrimazole, S883417, S100250 10 μM; approximately 40 hours
Experimental: as §1

[5] = molecular target: T2, LXRα-RXR heterodimers and receptor interaction domains of coactivator SRC1 (Homo sapiens, UniProt Q13133); assay: LXR-coactivator association, VP-L-hLXRα / L-hRXRα / GAL4-SRC1 in CV-1 cells; type: cell-based; details: 20 μM, coactivator GAL4-SRC1, CV-1 cells
T2 construct: expressed in transfected cells; host or cells: CV-1 cells
T2 sequence (Q13133 209-447 limits assumed): T1 sequence (Q13133 209-447 limits assumed)
T2 sequence (P19793 227-458 partner limits assumed): T1 sequence (P19793 227-458 partner limits assumed)
Experimental: (§2) CV-1 cells were grown in DMEM supplemented with 10% resin-charcoal stripped fetal bovine serum, 50 U/ml penicillin G and 50 μg/ml streptomycin sulfate at 37° C. in 5% CO2. Cells were plated to 50-80% confluence one day prior to transfection using phenol red-free DMEM-FBS. The cells were transfected by lipofection using N-[1-(2,3-dioleoyloxy)propyl]-N,N,N-ammonium methyl sulfate according to manufacturer's instructions (Boehringer Mannheim).
(§3) Genes encoding the following full-length proteins, which are suitable for use in the studies described herein, were cloned into pCMX: human RXRα (Gene Bank accession X52773) and human LXRα (GenBank accession U22662). The cells were transfected with CMX-βgal and luciferase constructs. The CMX-βGal construct contained the ligand binding domain of human RXR (hRXRα) and the ligand binding domain of human LXRα (hLXRα) as indicated in FIG. 1. The luciferase reporter construct (LXREx3 TK-Luc) contained the herpes virus thymidine kinase promoter (−105/+51) linked to three copies of the response element LXRE. After transfection, the cells were treated with 20 μM of a synthetic azole test compound or vehicle alone for 40 hours in phenol red-free DMEM-FBS.
VP-L-hLXRα contains the transactivation domain of Herpes VP16, linked to the LBD of human LXRα, L-hRXRα is the LBD of human RXRα. UASGx4 TK-Luc was the reporter gene, and the assay additionally included the coactivator GAL4-SRC1. Treatment with 20 μM azole compound as indicated was able to inhibit interactions between LXRα-RXR heterodimers and the receptor interaction domains from the coactivator SRC1.

[6] = molecular target: T3, ligand binding domain of LXRα-RXR heterodimers (Homo sapiens, UniProt Q13133); assay: LXR ligand binding domain mediated activity, UASGx4 TK-Luc reporter in CV-1 cells; type: cell-based; details: 20 μM
T3 construct: expressed in transfected cells; host or cells: CV-1 cells
T3 sequence (Q13133 209-447 limits assumed): T1 sequence (Q13133 209-447 limits assumed)
T3 sequence (P19793 227-458 partner limits assumed): T1 sequence (P19793 227-458 partner limits assumed)
Experimental: as §2
as §3, with “DMEM-FBS. After exposure to the candidate antagonist compounds, cells were harvested and assayed for luciferase and β-galactosidase activity.” for “DMEM-FBS.”
The reporter gene was UASGx4 TK-Luc.

[7] = molecular target: RXR (Homo sapiens, UniProt P19793); assay: RXR activity (data not shown); type: cell-based
RXR, sequence (P19793 whole entry): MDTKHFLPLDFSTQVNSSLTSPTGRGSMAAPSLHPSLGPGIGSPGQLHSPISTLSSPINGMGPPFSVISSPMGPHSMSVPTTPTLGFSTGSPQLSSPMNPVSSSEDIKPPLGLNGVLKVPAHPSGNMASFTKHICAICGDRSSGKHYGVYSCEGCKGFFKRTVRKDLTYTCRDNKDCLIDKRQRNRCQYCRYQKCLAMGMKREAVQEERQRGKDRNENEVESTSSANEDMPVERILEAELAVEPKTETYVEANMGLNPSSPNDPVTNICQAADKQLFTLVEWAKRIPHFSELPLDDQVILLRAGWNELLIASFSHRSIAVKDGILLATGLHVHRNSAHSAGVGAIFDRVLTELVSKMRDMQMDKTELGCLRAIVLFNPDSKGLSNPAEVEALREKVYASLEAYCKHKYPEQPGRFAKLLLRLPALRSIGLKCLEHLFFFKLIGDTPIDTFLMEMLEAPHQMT

human PXR, sequence (O75469 whole entry, the tested form may be a part): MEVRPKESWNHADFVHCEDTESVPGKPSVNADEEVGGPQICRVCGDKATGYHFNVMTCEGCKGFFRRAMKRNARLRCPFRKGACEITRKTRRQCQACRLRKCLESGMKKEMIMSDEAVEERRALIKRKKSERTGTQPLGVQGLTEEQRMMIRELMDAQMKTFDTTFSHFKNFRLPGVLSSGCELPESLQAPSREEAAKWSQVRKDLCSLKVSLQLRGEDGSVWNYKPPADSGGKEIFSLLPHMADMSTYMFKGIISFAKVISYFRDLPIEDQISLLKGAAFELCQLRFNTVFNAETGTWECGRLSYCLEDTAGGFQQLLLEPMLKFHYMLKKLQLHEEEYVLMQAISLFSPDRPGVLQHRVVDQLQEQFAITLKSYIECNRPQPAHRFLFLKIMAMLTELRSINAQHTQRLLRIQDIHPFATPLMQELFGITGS

Clc1ccccc1C(c1ccccc1)(c1ccccc1)n1ccnc1 [Clotrimazole]
activity on human PXR [1]: agonist
repression of LXRα activity ([2]; 10 μM, approximately 40 hours, lipid-stripped serum): powerful antagonist
antagonist potency LXRα compared with LXRβ ([2]; dose-response, FIG. 5): more potent antagonist of LXRα than LXRβ
EC50 ([2]; dose-response, increasing concentrations, read-out: EC50 for repression of LXRα constitutive activity): ~10 µM
SREBP-1c expression compared to T0901317 alone [3]: significantly reduced
cytotoxicity [4]: No cytotoxicity
inhibition of LXR-coactivator association [5]: inhibition of LXR-coactivator association
inhibition of constitutive activation by the LXRα-RXR ligand binding domain (UASGx4 TK-Luc) [6]: inhibit constitutive activation
effect on RXR activity [7]: no effect

From patent publication US20050009837A1, “Modulators of lipid metabolism and methods of use” (City of Hope, priority 2003, published 2005)
